Experiments:
[1] = tested on: Erysiphe graminis forma specialis tritici; experiment: Activity against powdery mildew of wheat (protective, wheat seedlings cv. Frühgold); assay type: in vivo; conditions: single active ingredient, 7 days
Text: The active ingredients, separately or together, were formulated as a 10% emulsion in a mixture of 63% by weight of cyclohexanone and 27% by weight of emulsifier, and diluted with water to the desired concentration. […]
Activity against powdery mildew of wheat
Leaves of wheat seedlings cv. “Frühgold” which had been grown in pots were sprayed to runoff point with an aqueous preparation of active ingredient which had been prepared from a stock solution comprising 10% of active ingredient, 63% of cyclohexanone and 27% of emulsifier and, 24 hours after the spraycoating had dried on, dusted with spores of powdery mildew of wheat (Erysiphe graminis forma specialis tritici). The test plants were subsequently placed in a greenhouse at from 20 to 24° C. and a relative atmospheric humidity of 60 to 90%. After 7 days, the extent of mildew development was determined visually as percent infection of the total leaf area.
(§1) The visually determined values for the percentage of infected leaf area were converted into efficacies as percent of the untreated control. Efficacy 0 means the same disease level as in the untreated control, efficacy 100 means 0% disease. The expected efficacies for active ingredient combinations were determined using Colby's formula (Colby, S. R. “Calculating synergistic and antagonistic responses of herbicide combinations”, Weeds, 15, p. 20-22, 1967) and compared with the observed efficacies.

Puccinia recondita = experiment: Curative action against Puccinia recondita on wheat (brown rust of wheat); assay type: in vivo; conditions: single active ingredient, 7 days
Protocol: The active ingredients, separately or together, were formulated as a 10% emulsion in a mixture of 63% by weight of cyclohexanone and 27% by weight of emulsifier, and diluted with water to the desired concentration.
The expected efficacies of the mixtures of the active ingredients were determined using Colby's formula [R. S. Colby, Weeds 15, 20-22 (1967)] and compared with the observed efficacies.
Colby's formula: E=x+y−x·y/100
E expected efficacy, expressed in % of the untreated control, when using the mixture, disclosed in DE Appl. 19617232.2, of the active ingredients I and II (=active ingredient mixture A) and the active ingredients III at the concentrations a and c […]
x efficacy, expressed in % of the untreated control, when using a mixture, disclosed in DE Appl. 19617232.2, of the active ingredients I and II at a concentration of a y efficacy, expressed in % of the untreated control, when using active ingredient III at a concentration of c Curative action against Puccinia recondita on wheat (brown rust of wheat) Leaves of wheat seedlings cv. “Frühgold” which had been grown in pots were dusted with spores of brown rust (Puccinia recondita). The pots were then kept for 24 hours in a chamber of high atmospheric humidity (90 to 95%) at 20 to 22° C. During this time, the spores germinated and the germinal tubes penetrated into the leaf tissue. The next day, the infected plants were sprayed to runoff point with an aqueous preparation of active ingredient which had been prepared from a stock solution comprising 10% of active ingredient, 63% of cyclohexanone and 27% of emulsifier. After the spray coating had dried on, the test plants were cultivated in a greenhouse at temperatures from 20 to 22° C. and at 65 to 70% relative atmospheric humidity for 7 days. The extent of the rust fungus development on the leaves was then determined.
as §1

Structure (SMILES): CCCC1COC(Cn2cncn2)(c2ccc(Cl)cc2Cl)O1 (racemic) [III.24, (±)-1-{[2-(2,4-dichlorophenyl)-4-propyl-1,3-dioxolan-2-yl]methyl}-1H-1,2,4-triazole]
- Efficacy in % of the untreated control ([1]; 0.31 ppm in the spray liquor): 8%
- Efficacy in % of the untreated control ([1]; 1.25 ppm in the spray liquor): 8%
- Efficacy in % of the untreated control (Puccinia recondita; 0.31 ppm in the spray liquor): 0%
- Efficacy in % of the untreated control (Puccinia recondita; 1.25 ppm in the spray liquor): 0%

Structure (SMILES): CC(C)(C)C(O)(CCc1ccc(Cl)cc1)n1cncn1 (stereo not drawn) [III.27, 1-(4-chlorophenyl)-4,4-dimethyl-3-(1H-1,2,4-triazol-1yl)pentan-3-ol]
- Efficacy in % of the untreated control ([1]; 0.31 ppm in the spray liquor): 8%
- Efficacy in % of the untreated control ([1]; 1.25 ppm in the spray liquor): 39%
- Efficacy in % of the untreated control (Puccinia recondita; 0.31 ppm in the spray liquor): 0%
- Efficacy in % of the untreated control (Puccinia recondita; 1.25 ppm in the spray liquor): 0%

Structure (SMILES): C[Si](Cn1cncn1)(c1ccc(F)cc1)c1ccc(F)cc1 [III.12, bis-(4-fluorophenyl)(methyl)-(1H-1,2,4-triazol-1-ylmethyl)silane]
- Efficacy in % of the untreated control (Puccinia recondita; 0.31 ppm in the spray liquor): 0%
- Efficacy in % of the untreated control (Puccinia recondita; 1.25 ppm in the spray liquor): 0%

Structure (SMILES): CCCN(CCOc1c(Cl)cc(Cl)cc1Cl)C(=O)n1ccnc1 [III.23, N-propyl-N-[(2,4,6-trichlorophenoxy)ethyl]imidazole-1-carboxamide]
- Efficacy in % of the untreated control ([1]; 0.31 ppm in the spray liquor): 0%
- Efficacy in % of the untreated control ([1]; 1.25 ppm in the spray liquor): 0%
- Efficacy in % of the untreated control (Puccinia recondita; 0.31 ppm in the spray liquor): 0%
- Efficacy in % of the untreated control (Puccinia recondita; 1.25 ppm in the spray liquor): 0%

Structure (SMILES): Fc1ccc([C@]2(Cn3cncn3)O[C@@H]2c2ccccc2Cl)cc1 (racemic) [III.8, (2RS, 3RS)-1-[3-(2-chlorophenyl)-2,3-epoxy-2-(4-fluorophenyl)propyl]-1H-1,2,4-triazole]
- Efficacy in % of the untreated control (Puccinia recondita; 0.31 ppm in the spray liquor): 0%

Source: patent US6369090B1, “Fungicidal mixture” (BASF Aktiengesellschaft, priority 1997, dated 2002)
